In the supplement of paper PMC11451515:

Assays:
Settings in all cases: 48 h
NOMO1 [1] = experiment: cell viability relative to DMSO control; higher = less cytotoxic
Procedure, shortened: (§1)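 Viability is expressed as a percentage of DMSO wells within each plate, and cell-free wells serve as background. Seeding densities in the 1536-well plates (5 μl) were 500 cells/well for NOMO1 or SEM leukemia cells and 1000 cells/well for P12-Ichikawa. Each line was adapted for at least four passages in each medium. Library compounds in DMSO were pin-dosed at 47 μM to 0.79 nM (11 points, threefold), and CellTiter-Glo One luminescence was read after 48 h at 37°C.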

SEM cells [2] = experiment: as above
Procedure, shortened: as §1

NOMO1 [3] = experiment: AUC of viability dose-response curve (% viability x log10 dose units); higher = less sensitive
Procedure, shortened: (§2)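 Leukemia cells adapted to each medium were seeded in 1536-well plates (500 or 1000 cells/well). They were dosed with library compounds in DMSO at 11 threefold doses, 47 μM to 0.79 nM, for 48 h at 37°C. CellTiter-Glo One luminescence was normalised per plate to DMSO and cell-free wells. Area under the curve was integrated by trapezoidal rule over log10 doses on a four-parameter log-logistic fit; curves exceeding full viability were scaled and curves failing quality control removed.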

P12-Ichikawa [4] = experiment: as above
Procedure, shortened: as §2

SEM cells [5] = experiment: as above
Procedure, shortened: as §2

P12-Ichikawa [6] = experiment: cell viability relative to DMSO control; higher = less cytotoxic
Procedure, shortened: as §1

CC(C)C[C@@H](C=O)NC(=O)[C@H](CC(C)C)NC(=O)[C@H](CC(C)C)NC(=O)OCc1ccccc1
cell viability [%]
Settings | NOMO1 [1] | SEM cells [2]
HPLM + 10% dialyzed FBS, 0.000781 µM | – | 108
HPLM + 10% dialyzed FBS, 0.00234 µM | – | 115
HPLM + 10% dialyzed FBS, 0.00702 µM | – | 126
HPLM + 10% dialyzed FBS, 0.0211 µM | – | 122
HPLM + 10% dialyzed FBS, 0.0632 µM | – | 148
HPLM + 10% dialyzed FBS, 0.19 µM | – | 139
HPLM + 10% dialyzed FBS, 0.569 µM | – | 81.8
HPLM + 10% dialyzed FBS, 1.71 µM | – | 9.69
HPLM + 10% dialyzed FBS, 5.12 µM | – | 9.22
HPLM + 10% dialyzed FBS, 15.4 µM | – | 8.52
HPLM + 10% dialyzed FBS, 46.1 µM | – | 8.11
RPMI 5 mM glucose + 10% FBS, 0.000781 µM | 115 | 111
RPMI 5 mM glucose + 10% FBS, 0.00234 µM | 119 | 131
RPMI 5 mM glucose + 10% FBS, 0.00702 µM | 130 | 124
RPMI 5 mM glucose + 10% FBS, 0.0211 µM | 143 | 143
RPMI 5 mM glucose + 10% FBS, 0.0632 µM | 134 | 124
RPMI 5 mM glucose + 10% FBS, 0.19 µM | 128 | 127
RPMI 5 mM glucose + 10% FBS, 0.569 µM | 78.1 | 10.8
RPMI 5 mM glucose + 10% FBS, 1.71 µM | 42.1 | 9.94
RPMI 5 mM glucose + 10% FBS, 5.12 µM | 10.2 | 10
RPMI 5 mM glucose + 10% FBS, 15.4 µM | 8.45 | 9.17
RPMI 5 mM glucose + 10% FBS, 46.1 µM | 7.38 | 8.59

AUC of viability dose-response curve
Settings | NOMO1 [3] | P12-Ichikawa [4] | SEM cells [5]
HPLM + 10% dialyzed FBS | 337 | 364 | 305
RPMI 5 mM glucose + 10% FBS | 312 | 324 | 279
RPMI 5 mM glucose + 10% dialyzed FBS | 351 | 361 | 315

CCC(=O)NCC[C@@H]1CCc2ccc3c(c21)CCO3
AUC of viability dose-response curve
Settings | NOMO1 [3] | P12-Ichikawa [4] | SEM cells [5]
HPLM + 10% dialyzed FBS | 444 | 444 | 430
RPMI 5 mM glucose + 10% FBS | 446 | 455 | 431
RPMI 5 mM glucose + 10% dialyzed FBS | 449 | 459 | 435

OC(Cn1cncn1)(Cn1cncn1)c1ccc(F)cc1F
AUC of viability dose-response curve
Settings | NOMO1 [3] | P12-Ichikawa [4] | SEM cells [5]
HPLM + 10% dialyzed FBS | 431 | 448 | 463
RPMI 5 mM glucose + 10% FBS | 449 | 448 | 451
RPMI 5 mM glucose + 10% dialyzed FBS | 449 | 462 | 467

Fc1ccc([C@@H]2CCNC[C@H]2COc2ccc3c(c2)OCO3)cc1
SEM cells [2], HPLM + 10% dialyzed FBS
Settings | cell viability [%]
0.000781 µM | 119
0.00234 µM | 124
0.00702 µM | 130
0.0211 µM | 141
0.0632 µM | 122
0.19 µM | 123
0.569 µM | 125
1.71 µM | 109
5.12 µM | 103
15.4 µM | 58.9
46.1 µM | 24.7

AUC of viability dose-response curve
Settings | NOMO1 [3] | P12-Ichikawa [4] | SEM cells [5]
HPLM + 10% dialyzed FBS | 447 | 396 | 417
RPMI 5 mM glucose + 10% FBS | 463 | 337 | 407
RPMI 5 mM glucose + 10% dialyzed FBS | 455 | 393 | 416

C[C@@H]1CC[C@H]2[C@@H](C)C(=O)O[C@@H]3O[C@@]4(C)CC[C@@H]1[C@]32OO4
cell viability [%], SEM cells [2]
Settings | RPMI 5 mM glucose + 10% FBS | RPMI 5 mM glucose + 10% dialyzed FBS
0.000781 µM | 115 | 132
0.00234 µM | 144 | 113
0.00702 µM | 118 | 120
0.0211 µM | 134 | 118
0.0632 µM | 109 | 110
0.19 µM | 108 | 100
0.569 µM | 115 | 97.6
1.71 µM | 87.6 | 77.3
5.12 µM | 91.7 | 72.2
15.4 µM | 116 | 112
46.1 µM | 114 | 126

AUC of viability dose-response curve
Settings | NOMO1 [3] | P12-Ichikawa [4] | SEM cells [5]
HPLM + 10% dialyzed FBS | 435 | 440 | 436
RPMI 5 mM glucose + 10% FBS | 419 | 412 | 424
RPMI 5 mM glucose + 10% dialyzed FBS | 451 | 416 | 418

O=C1c2c(O)ccc(O)c2C(=O)c2c(NCCNCCO)ccc(NCCNCCO)c21
cell viability [%]
Settings | NOMO1 [1] | P12-Ichikawa [6] | SEM cells [2]
HPLM + 10% dialyzed FBS, 0.000781 µM | 95 | 101 | 77.4
HPLM + 10% dialyzed FBS, 0.00234 µM | 113 | 105 | 81
HPLM + 10% dialyzed FBS, 0.00702 µM | 127 | 108 | 88.6
HPLM + 10% dialyzed FBS, 0.0211 µM | 131 | 110 | 105
HPLM + 10% dialyzed FBS, 0.0632 µM | 120 | 104 | 95
HPLM + 10% dialyzed FBS, 0.19 µM | 124 | 99.7 | 96.5
HPLM + 10% dialyzed FBS, 0.569 µM | 29.3 | 6.68 | 5.15
HPLM + 10% dialyzed FBS, 1.71 µM | 92.4 | 36.9 | 14.7
HPLM + 10% dialyzed FBS, 5.12 µM | 27.3 | 8.95 | 4.46
HPLM + 10% dialyzed FBS, 15.4 µM | 24.3 | 7 | 3.34
HPLM + 10% dialyzed FBS, 46.1 µM | 5.26 | 5.91 | 3.77
RPMI 5 mM glucose + 10% FBS, 0.000781 µM | 102 | 96 | 88.3
RPMI 5 mM glucose + 10% FBS, 0.00234 µM | 102 | 101 | 99.7
RPMI 5 mM glucose + 10% FBS, 0.00702 µM | 107 | 96.7 | 127
RPMI 5 mM glucose + 10% FBS, 0.0211 µM | 108 | 124 | 116
RPMI 5 mM glucose + 10% FBS, 0.0632 µM | 100 | 107 | 97.5
RPMI 5 mM glucose + 10% FBS, 0.19 µM | 105 | 94.3 | 79.1
RPMI 5 mM glucose + 10% FBS, 0.569 µM | 18.5 | 4.89 | 5.41
RPMI 5 mM glucose + 10% FBS, 1.71 µM | 110 | 32.4 | 10.6
RPMI 5 mM glucose + 10% FBS, 5.12 µM | 18.2 | 5.93 | 4.48
RPMI 5 mM glucose + 10% FBS, 15.4 µM | 17.2 | 5.48 | 2.93
RPMI 5 mM glucose + 10% FBS, 46.1 µM | 4.37 | 5.03 | 3.79
RPMI 5 mM glucose + 10% dialyzed FBS, 0.000781 µM | 107 | 97.5 | 90
RPMI 5 mM glucose + 10% dialyzed FBS, 0.00234 µM | 113 | 96 | 89
RPMI 5 mM glucose + 10% dialyzed FBS, 0.00702 µM | 108 | 98 | 96.4
RPMI 5 mM glucose + 10% dialyzed FBS, 0.0211 µM | 113 | 106 | 95.7
RPMI 5 mM glucose + 10% dialyzed FBS, 0.0632 µM | 112 | 106 | 97.9
RPMI 5 mM glucose + 10% dialyzed FBS, 0.19 µM | 103 | 102 | 99
RPMI 5 mM glucose + 10% dialyzed FBS, 0.569 µM | 53.2 | 8.07 | 4.03
RPMI 5 mM glucose + 10% dialyzed FBS, 1.71 µM | 107 | 45.4 | 15.7
RPMI 5 mM glucose + 10% dialyzed FBS, 5.12 µM | 20.3 | 9.1 | 4.3
RPMI 5 mM glucose + 10% dialyzed FBS, 15.4 µM | 27.1 | 7.62 | 2.61
RPMI 5 mM glucose + 10% dialyzed FBS, 46.1 µM | 3.81 | 9.05 | 3.1

AUC of viability dose-response curve
Settings | HPLM + 10% dialyzed FBS | RPMI 5 mM glucose + 10% FBS | RPMI 5 mM glucose + 10% dialyzed FBS
P12-Ichikawa [4] | 286 | 280 | 296
SEM cells [5] | 251 | 261 | 261
